Reference: PMC7822874, “Chemoprotective antimalarials identified through quantitative high-throughput screening of Plasmodium blood and liver stage parasites” (Scientific Reports, 2021)

test system: Plasmodium falciparum Dd2 asexual blood stage parasites; assay: microbe, parasite or virus in culture; parameters: species or system Plasmodium falciparum Dd2 in human erythrocytes; single determination (one 11-point concentration-response curve); conditions: Plasmodium falciparum, DD2, Erythrocyte, 72 h

SMILES	AC50 [µM]
Oc1cc2c(cc1CN1CCN(c3ccccc3)CC1)CCC2 [MLS000058156-01]	3.35

same assay, conditions: Plasmodium falciparum, DD2, Erythrocyte, 72 h; read-out: AC50

SMILES	AC50 [µM]
O=C(CN1CCC(n2nnc3cc(F)ccc32)CC1)Nc1ccccc1N1CCOCC1 [MLS000030185-01]	5.31
CCc1c(C)[nH]c2ccccc2c1=O [MLS000030676-01]	10.6
CC(=O)Nc1cc(-c2ccccc2)ccc1O [MLS000030849-01]	4.73
Oc1ccc(CN2CCCCC2)nc1-c1ccccc1 [MLS000031925-01]	0.531
O=C(Nc1cnc2ccccc2c1)c1cccc(-n2cnnn2)c1 [MLS000032104-01]	2.66
CCn1c(SCc2ccc(C#N)cc2)nnc1-c1ccc(S(=O)(=O)N2CCCCC2)cc1 [MLS000032588-01]	6.68
Cc1cc(Nc2ccc(C)c(F)c2)n2ncnc2n1 [MLS000033310-01]	9.44
Cc1ccc(NC(=O)N(Cc2ccc3c(c2)OCO3)Cc2cc3cc4c(cc3[nH]c2=O)OCCO4)cc1 [MLS000033889-01]	6.68
C1CCC(CNc2c3c(nc4nnnn24)CCCC3)CC1 [MLS000034780-01]	13.3
CSc1nnc(-c2cc3ccccc3cc2O)n1C [MLS000035069-01]	7.5
CCn1nnc(NC(=O)c2ccc(C(C)(C)C)cc2)n1 [MLS000035112-01]	9.44
COc1cc(OC)cc(-c2cc3nc4c(c(N5CCN(c6ncccn6)CC5)n3n2)CCCC4)c1 [MLS000035210-01]	4.22
CCOC(=O)c1c(CN(C)C)oc2cc(CN(C)C)c(O)c(CSc3ccccc3)c12 [MLS000038262-01]	0.596
COc1ccc(CC(=O)NCc2ccccn2)cc1OC [MLS000039135-01]	7.5
CC1(c2ccccn2)Nc2ccccc2-c2nc3ccccc3n21 (stereo not shown) [MLS000039430-01]	5.31
COc1ccc(CCn2c(=N)c(C(=O)NCc3ccco3)cc3c(=O)n4cccc(C)c4nc32)cc1 [MLS000040240-01]	1.68
CCOC(=O)c1nnn(-c2nonc2N)c1-c1ccc(OC)cc1 [MLS000043574-01]	5.31
CC(C)(C)Nc1nc(NC(C)(C)C)nc(-n2ccnc2)n1 [MLS000044025-01]	4.73
CCOC(=O)c1ccc(Nc2nc(=O)c(C(C)(C)C)n[nH]2)cc1 [MLS000044326-01]	13.3
CCOC(=O)C1CCN(c2cc(=O)n(-c3ccccc3Cl)c(=O)[nH]2)CC1 [MLS000045867-01]	8.41
O=C(NCc1ccco1)c1cc(-c2ccncc2)nc2ccccc12 [MLS000046192-01]	5.96
CCC(=O)N1CCc2cc(Br)cc(S(=O)(=O)C3(C(=O)OC)CC3)c21 [MLS000047144-01]	3.76

SMILES	AC50 [µM]
COc1ccccc1NC(=O)CN1CCN(C2c3ccccc3-c3ccccc32)CC1 [MLS000047428-01]	15
O=C(CN1CCN(C(=O)c2ccco2)CC1)Nc1cc(C(F)(F)F)ccc1Cl [MLS000047443-01]	7.5
COc1cc(C2NCc3ccccc3-n3cccc32)ccc1O (stereo not shown) [MLS000047988-01]	2.66
Cc1ccc(Nc2cc(C)nn2-c2nc(C)cc(C)n2)cc1 [MLS000048464-01]	6.68
Clc1ccc2c(N3CCCC3)ccnc2c1 [MLS000049600-01]	3.76
O=C1Nc2ccccc2C12Nc1ccccc1-c1nc3ccccc3n12 (stereo not shown) [MLS000051512-01]	6.68
c1ccc(Cn2c(Sc3nnnn3-c3ccccc3)nnc2-c2ccccc2)cc1 [MLS000052243-01]	7.5
Cc1cc(C(=O)CN2C(=O)NC(C)(c3cccc(Br)c3)C2=O)c(C)n1Cc1ccco1 (stereo not shown) [MLS000055137-01]	13.3
Cc1cc(C(=O)CN2C(=O)NC(c3ccccc3)(c3ccccc3)C2=O)c(C)n1Cc1ccco1 [MLS000056256-01]	8.41
CCN(CC)c1ccc2oc(=O)c(C)nc2c1 [MLS000062529-01]	6.68
CC1Cn2c(nnc2-c2cc3ccccc3cc2O)S1 (stereo not shown) [MLS000066435-01]	4.73
CCCc1c(C)[nH]c2ccccc2c1=O [MLS000067721-01]	7.5
Cc1cccc2cc(CN(Cc3ccco3)C(c3nnnn3CCc3ccccc3)C(C)C)c(O)nc12 (stereo not shown) [MLS000072528-01]	10.6
O=C(Nc1ccc(N2CCOCC2)c(Cl)c1)c1nc[nH]n1 [MLS000072688-01]	9.44
CC(C)(C)n1nnnc1C(c1cc2cc3c(cc2[nH]c1=O)OCO3)N1CCN(c2ccccc2)CC1 (stereo not shown) [MLS000072810-01]	7.5
CCC(C)(C)n1nnnc1C(c1cc2cccc(C)c2nc1O)N1CCN(C(=O)c2ccco2)CC1 (stereo not shown) [MLS000073230-01]	6.68
Cc1ccc(C(=O)c2cc(C)sc2NC(=O)CN2CCN(C(=O)c3ccco3)CC2)cc1 [MLS000073677-01]	7.5
Cc1nn(C(=N)S)c(O)c1C(c1ccccc1)C(C#N)C#N (stereo not shown) [MLS000077118-01]	6.68
COc1ccc(N2CCN(C(c3cc4ccc(C)cc4nc3O)c3nnnn3C3CCCC3)CC2)cc1 (stereo not shown) [MLS000077379-01]	6.68
COc1ccccc1N1CCN(C(c2cc3ccc(C)cc3nc2O)c2nnnn2C2CCCC2)CC1 (stereo not shown) [MLS000077380-01]	7.5
CCN(CC)CCNC(O)=C1C(=O)c2cccc3c2N(CCC3)C1=O [MLS000078957-01]	10.6
CC1(c2ccccc2)CC(c2ccccc2)=Nc2nonc2N1 (stereo not shown) [MLS000079110-01]	5.31

SMILES	AC50 [µM]
CCOC(=O)C1=Nc2ccccc2C1=[N+]=[N-] [MLS000079382-01]	4.22
CNc1cc(C)nc(-n2nc(C)cc2C)n1 [MLS000079642-01]	8.41
Cc1nn2c3c(cnc2c1-c1ccccc1)C(=O)CC(c1ccco1)C3 (stereo not shown) [MLS000080714-01]	9.44
Cc1ccccc1-n1c(=C(C#N)C(=O)Nc2ccccc2)sc(=Cc2ccco2)c1=O [MLS000081502-01]	5.31
O=C(Nc1cccnc1)c1cn(-c2ccccc2)nc1-c1cccs1 [MLS000081870-01]	2.37
Cc1nn(-c2ccccc2)c2c1C(O)n1c(nc3ccccc31)S2 (stereo not shown) [MLS000081954-01]	5.31
C=C(C)COc1ccc(-c2n[nH]cc2Oc2ccccc2OCC)c(O)c1 [MLS000083085-01]	2.99
COc1ccc(OC)c(NC(=O)c2cc(-c3cc(Cl)ccc3O)n[nH]2)c1 [MLS000083936-01]	4.73
O=c1c2ccccc2sc2nc(C3CCCCC3)n(Cc3ccco3)c(=O)c12 [MLS000084065-01]	7.5
Cc1ccc(O)c(CN2CCN(c3ccccc3)CC2)c1 [MLS000084753-01]	2.99
CC(=O)N1CCc2cc(Br)cc(S(=O)(=O)N3CCCCCC3)c21 [MLS000086258-01]	5.31
Cn1cc(C(=O)NCCN2CCN(c3cccc(Cl)c3)CC2)c2c3ccccc3n(C)c2c1=O [MLS000086993-01]	4.73
Cc1cc(NC(=O)c2cc(-c3ccco3)on2)nn1Cc1ccc(Cl)cc1 [MLS000087231-01]	8.41
O=C(Nc1ccccc1C(F)(F)F)c1cc(-c2ccccc2O)on1 [MLS000087293-01]	2.99
Cc1cc(C(=O)Nc2cnn(Cc3ccc(Cl)cc3Cl)c2)no1 [MLS000087313-01]	9.44
CC(C)c1cc(C(=O)Nc2cc(Cl)ccc2O)no1 [MLS000087324-01]	6.68
Cc1occc1C(=O)N1CCN(C(c2ccccc2)c2ccccc2)CC1 [MLS000089076-01]	10.6
CCOc1cc(C2CC(=O)NC3=C2C(=O)C(C(=O)OC)C(C)C3)cc(Br)c1O (stereo not shown) [MLS000090952-01]	6.68
Cc1cc(NC(=O)CSc2ccc3nnc(-c4cccc(F)c4)n3n2)no1 [MLS000093339-01]	5.96
CC(C)N1CC=C(c2c[nH]c3ccccc23)CC1 [MLS000093714-01]	10.6
Cc1ccc(CSC2=Nc3ccccc3C3=NC(CC(=O)NCc4ccco4)C(=O)N23)cc1 (stereo not shown) [MLS000094891-01]	6.68
CCNc1nc(NCc2ccccc2)nc(Oc2ccc(=O)[nH]n2)n1 [MLS000097254-01]	2.11

SMILES	AC50 [µM]
OC(CNCC(c1ccco1)N1CCCCC1)c1ccccc1 (stereo not shown) [MLS000097545-01]	5.96
CCCOC(=O)c1ccc(-c2c(C)noc2-c2ccc(OC)cc2O)o1 [MLS000097856-01]	1.88
Cc1nc2sc(C(c3ccco3)N3CCN(C(c4ccccc4)c4ccccc4)CC3)c(O)n2n1 (stereo not shown) [MLS000101802-01]	5.96
Cc1cccc(N2CCN(c3cccc(C)c3)C2c2cccnc2)c1 [MLS000105583-01]	5.96
Oc1ccc(Br)cc1CN1CCN(c2ccccc2)CC1 [MLS000106609-01]	2.11
CCN(CC)CC(O)COc1ccccc1C(=O)CCc1ccccc1 (stereo not shown) [MLS000107538-01]	1.5
N=c1c2c(n(Cc3ccc(F)cc3)c3c1CCC3)CCC2 [MLS000107591-01]	3.35
N#Cc1c2c(c(NCc3ccco3)n3c1nc1ccccc13)CCC2 [MLS000109113-01]	2.37
CCCCOc1ccc(NC2=NC(N)=NC3(CCCCC3)N2)cc1 [MLS000109806-01]	8.41
Cc1cc(N2CCC(C)CC2)nc(-n2nc(C)cc2C)n1 [MLS000109839-01]	2.99
CCOC(=O)c1ccccc1NC(=O)C(C)Oc1ccccc1 (stereo not shown) [MLS000109889-01]	10.6
CCOC(=O)c1[nH]c(Cc2[nH]c(C(=O)OCC)c(C)c2CCC(=O)OC)c(CCC(=O)OC)c1C [MLS000111116-01]	5.31
CC1=CC(C)(C)Nc2ccc(OC(=O)c3cccnc3)cc21 [MLS000111190-01]	13.3
CCn1c(N2CCC(C)CC2)nc2c1c(=O)n(C)c(=O)n2C [MLS000115844-01]	5.96
Cc1cc(Nc2ccc(C(C)C)cc2)n2ncnc2n1 [MLS000116597-01]	4.22
COc1ccc(Nc2cc(C)nc3nc(C)nn23)cc1Cl [MLS000116613-01]	16.8
Cc1cc(Nc2ccc(C)c(C)c2)n2nc(C)nc2n1 [MLS000116616-01]	4.73
Cc1cc(Nc2ccc(Br)cc2)n2nc(C)nc2n1 [MLS000116653-01]	7.5
Cc1cc(NCc2ccco2)nc2cc(O)ccc12 [MLS000118315-01]	6.68
O=C(NC1CC1)c1ccc(CSCc2cccc(F)c2)o1 [MLS000120194-01]	8.41
COc1ccc(N(CC(=O)NCc2ccccc2)C(=O)CCC(=O)Nc2cc(C)ccn2)c(OC)c1 [MLS000121471-01]	10.6
